Assay results as given in PubChem BioAssay AID330 (DTP/NCI, 2004).
Several values for one entry are separate records, joined by “and”; a condition that tells them apart may be missing. Identical values can stand only once. Toxic doses and inconclusive results are not listed. How the source made its calls: active means survival T/C of 150% or more; inactive means T/C below 125% in these data. Peptide text beside a SMILES is read from it.

Test system: P388 leukemia ip, CD2F1 mice, survival T/C
Assay: NCI In Vivo Anticancer Drug Screen. Data for tumor model P388 Leukemia (intraperitoneal) in CD2F1 (CDF1) mice
Conditions: endpoint: median survival time, higher = longer survival
Method in brief: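 Mice carrying the transplanted tumor received test compound or vehicle. Survival was recorded in each group, and the value is the treated-group measurement divided by that of the vehicle-treated control group.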

[1] = dose: 50.0 mg/kg/injection, schedule: Q01DX005 (ip), vehicle: Klucel (hydroxypropylcellulose) (HPC)
[2] = dose: 12.5 mg/kg/injection, schedule: Q01DX009 (ip), vehicle: saline with Tween-80
[3] = dose: 25.0 mg/kg/injection, schedule: Q01DX009 (ip), vehicle: saline with Tween-80
[4] = dose: 6.25 mg/kg/injection, schedule: Q01DX009 (ip), vehicle: saline with Tween-80
[5] = dose: 50.0 mg/kg/injection, schedule: Q01DX009 (ip), vehicle: Klucel (hydroxypropylcellulose) (HPC)
[6] = dose: 100.0 mg/kg/injection, schedule: Q01DX009 (ip), vehicle: Klucel (hydroxypropylcellulose) (HPC)
[7] = dose: 200.0 mg/kg/injection, schedule: Q01DX009 (ip), vehicle: Klucel (hydroxypropylcellulose) (HPC)

Measured: T/C

Nc1cccc(C(=O)Nc2ccc3c(O)c(N=Nc4ccccc4)c(S(=O)(=O)O)cc3c2)c1
inactive: [1] 103 % of control | dose: 100.0 mg/kg/injection, schedule: Q01DX005 (ip), vehicle: Klucel (hydroxypropylcellulose) (HPC) 107 % of control | dose: 200.0 mg/kg/injection, schedule: Q01DX005 (ip), vehicle: Klucel (hydroxypropylcellulose) (HPC) 103 % of control

Cc1cccc(N2C(=O)CSC2=S)c1
inactive: [2] 109 % of control | [3] 100 % of control | dose: 50.0 mg/kg/injection, schedule: Q01DX009 (ip), vehicle: saline with Tween-80 103 % of control

O=C1c2ccccc2C(=O)c2sccc21
inactive: dose: 1.56 mg/kg/injection, schedule: Q01DX009 (ip), vehicle: saline with Tween-80 98 % of control | dose: 3.13 mg/kg/injection, schedule: Q01DX009 (ip), vehicle: saline with Tween-80 105 % of control | [4] 103 % of control | [2] 99 % of control | [3] 97 % of control | dose: 100.0 mg/kg/injection, schedule: Q01DX009 (ip), vehicle: saline with Tween-80 88 % of control

Nc1ccc(S(=O)O)cc1
inactive: dose: 100.0 mg/kg/injection, schedule: Q04DX003 (ip), vehicle: saline with Tween-80 100 % of control | dose: 200.0 mg/kg/injection, schedule: Q04DX003 (ip), vehicle: saline with Tween-80 100 % of control | dose: 400.0 mg/kg/injection, schedule: Q04DX003 (ip), vehicle: saline with Tween-80 100 % of control

O=C1NC(c2ccccc2Cl)Nc2ccccc21 (centres undefined)
inactive: [5] 94 % of control | [6] 92 % of control | [7] 95 % of control | dose: 400.0 mg/kg/injection, schedule: Q01DX009 (ip), vehicle: Klucel (hydroxypropylcellulose) (HPC) 90 % of control

S=c1[nH]c2ccccc2c2ccccc12
inactive: dose: 25.0 mg/kg/injection, schedule: Q01DX009 (ip), vehicle: Klucel (hydroxypropylcellulose) (HPC) 100 % of control | [5] 100 % of control | [6] 88 % of control | [7] 92 % of control

COC(=O)C(CCCN=C(N)N)NC(=O)C(N)CCCCN (stereo not drawn) (H-Lys-Arg-OMe; configuration not given here)
inactive: dose: 60.0 mg/kg/injection, schedule: Q01DX005 (ip), vehicle: saline with Tween-80 100 % of control | dose: 120.0 mg/kg/injection, schedule: Q01DX005 (ip), vehicle: saline with Tween-80 100 % of control | dose: 240.0 mg/kg/injection, schedule: Q01DX005 (ip), vehicle: saline with Tween-80 100 % of control

C=C1C(=O)CCC1C#N (centres undefined)
inactive: dose: 50.0 mg/kg/injection, schedule: Q04DX002 (ip), vehicle: suspension in saline 100 % of control | dose: 100.0 mg/kg/injection, schedule: Q04DX002 (ip), vehicle: suspension in saline 100 % of control | dose: 200.0 mg/kg/injection, schedule: Q04DX002 (ip), vehicle: suspension in saline 93 % of control

CCC[CH2][Sn]1([CH2]CCC)[O]C(=O)CSC(=S)SCC(=O)[O]1
inactive: dose: 1.56 mg/kg/injection, schedule: Q01DX009 (ip), vehicle: saline 90 % of control | dose: 3.12 mg/kg/injection, schedule: Q01DX009 (ip), vehicle: saline 92 % of control | [4] 116 % of control | dose: 6.25 mg/kg/injection, schedule: Q01DX009 (ip), vehicle: saline 89 % of control

COc1ccc2c(NCCCCCCNc3c4ccccc4nc4cc(OC)ccc34)c3ccccc3nc2c1
active: dose: 0.62 mg/kg/injection, schedule: Q## X009 (ip), vehicle: lactic acid 151 % of control | dose: 1.25 mg/kg/injection, schedule: Q## X009 (ip), vehicle: lactic acid 170 % of control | dose: 2.5 mg/kg/injection, schedule: Q## X009 (ip), vehicle: lactic acid 170 % of control | dose: 5.0 mg/kg/injection, schedule: Q01DX009 (ip), vehicle: other 154 % of control | dose: 5.0 mg/kg/injection, schedule: Q## X009 (ip), vehicle: lactic acid 164 % of control
inactive: dose: 0.63 mg/kg/injection, schedule: Q01DX009 (ip), vehicle: other 119 % of control | dose: 10.0 mg/kg/injection, schedule: Q01DX009 (ip), vehicle: other 110 % of control | dose: 10.0 mg/kg/injection, schedule: Q## X009 (ip), vehicle: lactic acid 86 % of control

CC(NNC(=S)N1CCCCCC1)c1ccccn1 (centres undefined)
inactive: dose: 12.5 mg/kg/injection, schedule: Q01DX005 (ip), vehicle: Klucel (hydroxypropylcellulose) (HPC) 103 % of control | dose: 25.0 mg/kg/injection, schedule: Q01DX005 (ip), vehicle: Klucel (hydroxypropylcellulose) (HPC) 106 % of control | [1] 112 % of control and 113 % of control
